Consider eleven compounds from patent US20220324835A1 (Nurix Therapeutics, Inc., priority 2018, published 2022).

This assay deals with T-cells. The assay is described as follows: In vivo activity: CD25 expression on CD4+ or CD8+ T-cells of mice stimulated with anti-CD3 antibody. The conditions noted are these: 2 μg anti-CD3 antibody, 24 hours. As to the method: A method of determining the pharmacodynamic profile of Cbl-b inhibitors was performed by dosing strains of mice with competent immune systems such as C57BL/6 or BALB/c with a Cbl-b inhibitor. The Cbl-b inhibitor was dissolved in a suitable formulation and administered by one of various routes such as intravenous (IV), intraperitoneal (IP), subcutaneous (SC), or oral (PO), at a suitable dose level and frequency (e.g. twice per day BID or thrice per day TID) as informed by prior pharmacokinetic and tolerability studies. Following administration of the Cbl-b inhibitor, T-cells and indirectly other immune cells (e.g. via cytokine production) were stimulated in vivo by administration of an anti-CD3 antibody or antigen-binding fragment thereof in PBS at defined amounts such as 2 μg or 10 μg per animal by routes such as IV or IP (See Hirsh et al., J. Immunol., 1989; Ferran, et al., Eur. J. Immunol., 1990). Additional study control arms included groups of mice treated with a vehicle formulation alone (i.e., formulation without the Cbl-b inhibitor and anti-CD3 antibody), a formulation containing the Cbl-b inhibitor alone, a formulation containing the anti-CD3 antibody alone, PBS alone, or combinations of these agents. The level of immune activation was then assessed by analysis of plasma cytokine levels and/or expression of activation markers on immune cells (e.g. T-cells). Blood or lymphoid organs (e.g. spleen) were collected at defined time points (e.g. 8 hours or 24 hours). Blood samples were processed to collect plasma for determination of cytokine levels using standard methods known in the art. Cytokines measured included IL-2, IFNγ, and TNFα. Additional blood samples and lymphoid tissues were processed for flow cytometric analysis of immune cells (e.g. T-cells) using standard methods to determine expression of cell type-specific markers and activation markers such as CD25 and/or CD69. Augmentation of immune stimulation by Cbl-b inhibitor administration was assessed by comparing the relative concentrations of cytokines in plasma, or the expression levels of activation markers on immune cells between appropriate groups (e.g. mice treated with Cbl-b inhibitor and 2 μg anti-CD3 antibody versus mice treated with vehicle and 2 μg anti-CD3 antibody).
Cbl-b inhibitors were tested to determine their ability to induce or enhance the level of cytokines (e.g. IL-2, IFNγ, and TNFα) in blood obtained from treated mice stimulated with an anti-CD3 antibody, which is indicative of modulation of the immune response. Cbl-b inhibitors were also tested to determine their ability to induce or enhance the expression of cell surface markers on T-cells (e.g. CD25 and/or CD69) isolated from treated mice stimulated with an anti-CD3 antibody, which is indicative of modulation of the immune response.
Readouts were reported as fold change over baseline. The fold change was calculated from the mean value of mice treated with Cbl-b inhibitor and 2 μg anti-CD3 antibody, with the baseline defined as the mean value of mice treated with vehicle and 2 μg anti-CD3 antibody. Increases in the percentage of cells with surface expression of CD25 on CD4+ T-cells or CD8+ T-cells greater than 1.5-fold over baseline at 24 hours were considered a positive response. Increases in the plasma concentration of IL-2, IFNγ, and TNFα greater than 1.5-fold over baseline at 8 hours post-stimulation were also considered a positive response (Table 8). Fold changes were ranked into bins according to their readouts as follows: A indicates >2.50, B indicates 2.01-2.50, C indicates 1.51-2.00, D indicates 1.00-1.50, and E indicates <1.00.

Consider `C[C@H](c1cc2c(c(C(F)(F)F)c1)CN(c1cccc(C3([C@H](F)c4nncn4C)COC3)c1)C2=O)N1CCC2(CC2)C1` (stereo in doubt) [Example 575, 6-((R)-1-(5-Azaspiro[2.4]heptan-5-yl)ethyl)-2-(3-(3-((S)-fluoro(4-methyl-4H-1,2,4-triazol-3-yl)methyl)oxetan-3-yl)phenyl)-4-(trifluoromethyl)isoindolin-1-one], for which the “CD4+ T-cell % CD25+” value was “C (C indicates 1.51-2.00)” (45 mpk PO BID), “A (A indicates >2.50)” (90 mpk PO BID) and “A (A indicates >2.50)” (180 mpk PO BID). The “CD8+ T-cell % CD25+” value (45 mpk PO BID) is “D (D indicates 1.00-1.50)”, the “CD8+ T-cell % CD25+” value (90 mpk PO BID) is on record as “C (C indicates 1.51-2.00)” and the “CD8+ T-cell % CD25+” value (180 mpk PO BID) is “C (C indicates 1.51-2.00)”.

In the case of `C[C@H](Cc1nncn1C)c1cccc(NC(=O)c2cccc(C(F)(F)F)n2)c1` [Compound 183a, (R)-N-(3-(1-(4-methyl-4H-1,2,4-triazol-3-yl)propan-2-yl)phenyl)-6-(trifluoromethyl)picolinamide], where the note is “90 mpk IP BID”, the “CD4+ T-cell % CD25+” value was “D (D indicates 1.00-1.50)” and the “CD8+ T-cell % CD25+” value is given as “D (D indicates 1.00-1.50)”.

As for `C[C@H](Cc1nncn1C)c1cccc(NC(=O)c2cc(C3CC3)cc(C(F)(F)F)n2)c1` [Compound 191, (R)-4-cyclopropyl-N-(3-(1-(4-methyl-4H-1,2,4-triazol-3-yl)propan-2-yl)phenyl)-6-(trifluoromethyl)picolinamide], the “CD4+ T-cell % CD25+” value is recorded as “C (C indicates 1.51-2.00)” (45 mpk IP BID), “D (D indicates 1.00-1.50)” (90 mpk PO BID), “D (D indicates 1.00-1.50)” (135 mpk PO BID) and “B (B indicates 2.01-2.50)” (180 mpk PO BID). For the same compound, the “CD8+ T-cell % CD25+” value (45 mpk IP BID) is on record as “D (D indicates 1.00-1.50)”, the “CD8+ T-cell % CD25+” value (90 mpk PO BID) is reported as “D (D indicates 1.00-1.50)”, the “CD8+ T-cell % CD25+” value (135 mpk PO BID) is “D (D indicates 1.00-1.50)” and the “CD8+ T-cell % CD25+” value (180 mpk PO BID) is reported as “D (D indicates 1.00-1.50)”.

Consider `Cc1cc(C(=O)Nc2cccc([C@H](C)Cc3nncn3C)c2)nc(C2CC2)n1` [Compound 195, (R)-2-cyclopropyl-6-methyl-N-(3-(1-(4-methyl-4H-1,2,4-triazol-3-yl)propan-2-yl)phenyl)pyrimidine-4-carboxamide], for which the “CD4+ T-cell % CD25+” value by setting is: (90 mpk PO BID) “D (D indicates 1.00-1.50)”; (135 mpk PO BID) “D (D indicates 1.00-1.50)”; (180 mpk PO BID) “C (C indicates 1.51-2.00)”. The “CD8+ T-cell % CD25+” value runs as follows: (90 mpk PO BID) “D (D indicates 1.00-1.50)”; (135 mpk PO BID) “D (D indicates 1.00-1.50)”; (180 mpk PO BID) “D (D indicates 1.00-1.50)”.

As for `C[C@H](Cc1nncn1C)c1cccc(N2Cc3c(cccc3C(F)(F)F)C2=O)c1` [Compound 255a, (R)-2-(3-(1-(4-methyl-4H-1,2,4-triazol-3-yl)propan-2-yl)phenyl)-4-(trifluoromethyl)isoindolin-1-one], where the note is “90 mpk IP BID”, the “CD4+ T-cell % CD25+” value is “B (B indicates 2.01-2.50)” and the “CD8+ T-cell % CD25+” value is “D (D indicates 1.00-1.50)”. Moreover, where the note is “135 mpk PO BID”, the “CD4+ T-cell % CD25+” value is reported as “D (D indicates 1.00-1.50)” and the “CD8+ T-cell % CD25+” value is given as “E (E indicates <1.00)”.

As for `Cc1cc(C(=O)Nc2cccc(C3(Cc4nncn4C)COC3)c2)nc(C2CC2)n1` [Compound 336, 2-cyclopropyl-6-methyl-N-(3-(3-((4-methyl-4H-1,2,4-triazol-3-yl)methyl)oxetan-3-yl)phenyl)pyrimidine-4-carboxamide], the “CD4+ T-cell % CD25+” value is recorded as “D (D indicates 1.00-1.50)” (45 mpk PO BID), “D (D indicates 1.00-1.50)” (90 mpk PO BID), “C (C indicates 1.51-2.00)” (135 mpk PO BID) and “C (C indicates 1.51-2.00)” (180 mpk PO BID). Moreover, the “CD8+ T-cell % CD25+” value reads like this: (45 mpk PO BID) “D (D indicates 1.00-1.50)”; (90 mpk PO BID) “D (D indicates 1.00-1.50)”; (135 mpk PO BID) “D (D indicates 1.00-1.50)”; (180 mpk PO BID) “D (D indicates 1.00-1.50)”.

Consider `CN1CC2CCC(C1)N2c1cc2c(c(C(F)(F)F)c1)CN(c1cccc(C3(Cc4nncn4C)COC3)c1)C2=O` [Compound 386, 2-(3-(3-((4-Methyl-4H-1,2,4-triazol-3-yl)methyl)oxetan-3-yl)phenyl)-6-(3-methyl-3,8-diazabicyclo[3.2.1]octan-8-yl)-4-(trifluoromethyl)isoindolin-1-one], for which, under “135 mpk PO BID”, the “CD4+ T-cell % CD25+” value is given as “C (C indicates 1.51-2.00)” and the “CD8+ T-cell % CD25+” value is on record as “D (D indicates 1.00-1.50)”.

For `Cn1cnnc1CC1(c2cccc(N3Cc4c(cc(CN5CCC(C)(F)CC5)cc4C(F)(F)F)C3=O)c2)COC1` [Example 620, 6-((4-fluoro-4-methylpiperidin-1-yl)methyl)-2-(3-(3-((4-methyl-4H-1,2,4-triazol-3-yl)methyl)oxetan-3-yl)phenyl)-4-(trifluoromethyl)isoindolin-1-one], the “CD4+ T-cell % CD25+” value runs as follows: (90 mpk PO BID) “D (D indicates 1.00-1.50)”; (135 mpk PO BID) “D (D indicates 1.00-1.50)”; (180 mpk PO BID) “D (D indicates 1.00-1.50)”. Moreover, the “CD8+ T-cell % CD25+” value (90 mpk PO BID) is “D (D indicates 1.00-1.50)”, the “CD8+ T-cell % CD25+” value (135 mpk PO BID) was “E (E indicates <1.00)” and the “CD8+ T-cell % CD25+” value (180 mpk PO BID) is given as “E (E indicates <1.00)”.

Take `C[C@@H]1CN(Cc2cc3c(c(C(F)(F)F)c2)CN(c2cccc(C4(Cc5nncn5C)COC4)c2)C3=O)CCO1` [Example 663b, (R)-2-(3-(3-((4-methyl-4H-1,2,4-triazol-3-yl)methyl)oxetan-3-yl)phenyl)-6-((2-methylmorpholino)methyl)-4-(trifluoromethyl)isoindolin-1-one]: where the note is “45 mpk PO BID”, the “CD4+ T-cell % CD25+” value was “D (D indicates 1.00-1.50)” and the “CD8+ T-cell % CD25+” value is reported as “D (D indicates 1.00-1.50)”. Besides, where the note is “135 mpk PO BID”, the “CD4+ T-cell % CD25+” value is recorded as “C (C indicates 1.51-2.00)” and the “CD8+ T-cell % CD25+” value is “D (D indicates 1.00-1.50)”.

As for `Cn1cnnc1[C@@H](F)C1(c2cccc(N3Cc4c(cc(CN5CCC(F)CC5)cc4C(F)(F)F)C3=O)c2)COC1` [Example 670a, (S)-2-(3-(3-(fluoro(4-methyl-4H-1,2,4-triazol-3-yl)methyl)oxetan-3-yl)phenyl)-6-((4-fluoropiperidin-1-yl)methyl)-4-(trifluoromethyl)isoindolin-1-one], for the setting “135 mpk PO BID”, the “CD4+ T-cell % CD25+” value is given as “B (B indicates 2.01-2.50)” and the “CD8+ T-cell % CD25+” value is listed as “D (D indicates 1.00-1.50)”.

As to `Cn1cnnc1[C@H](F)C1(c2cccc(N3Cc4c(cc(CN5CCC(F)CC5)cc4C(F)(F)F)C3=O)c2)COC1` [Example 670b, (R)-2-(3-(3-(fluoro(4-methyl-4H-1,2,4-triazol-3-yl)methyl)oxetan-3-yl)phenyl)-6-((4-fluoropiperidin-1-yl)methyl)-4-(trifluoromethyl)isoindolin-1-one], under “135 mpk PO BID”, the “CD4+ T-cell % CD25+” value was “C (C indicates 1.51-2.00)” and the “CD8+ T-cell % CD25+” value is listed as “D (D indicates 1.00-1.50)”.
